Measured values: ChEMBL document CHEMBL1201862, “PubChem BioAssay data set” (2004)
Activity calls are given as the source filed them.

What was measured:
Cysteine protease ATG4B = biological target: T1, Cysteine protease ATG4B (Homo sapiens, UniProt Q9Y4P1); format: functional;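 further: Fluorescence-based dose-response confirmation assay measuring inhibition of ATG4B activity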
T1 sequence (Q9Y4P1 whole entry): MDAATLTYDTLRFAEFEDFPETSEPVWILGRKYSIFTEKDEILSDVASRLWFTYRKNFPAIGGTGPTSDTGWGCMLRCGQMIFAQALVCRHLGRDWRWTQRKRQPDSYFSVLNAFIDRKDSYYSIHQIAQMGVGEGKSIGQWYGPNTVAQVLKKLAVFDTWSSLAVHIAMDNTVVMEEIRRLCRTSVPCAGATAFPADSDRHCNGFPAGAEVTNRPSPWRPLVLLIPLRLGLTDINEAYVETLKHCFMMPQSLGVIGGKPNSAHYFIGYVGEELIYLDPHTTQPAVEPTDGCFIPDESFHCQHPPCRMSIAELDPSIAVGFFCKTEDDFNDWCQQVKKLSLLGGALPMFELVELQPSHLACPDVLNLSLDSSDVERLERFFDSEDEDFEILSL

Phospholipase A2 = Phospholipase A2 (Homo sapiens, UniProt P04054); format: functional;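 further: confirmatory dose-response counterscreen on phospholipase A2, testing hits that came from an ultra-high-throughput screen for ATG4B inhibitors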
[1] = biological target: Tyrosine-protein phosphatase non-receptor type 11 (Homo sapiens, UniProt Q06124); assay: SHP2 phosphatase inhibition, dose response, selectivity assay for STEP inhibitor project, biochemical (AID 602367); format: functional; conditions: read-out: IC50_Mean
[2] = biological target: Tyrosine-protein phosphatase non-receptor type 5 (Homo sapiens, UniProt P54829); assay: STEP phosphatase inhibitors, confirmation, biochemical, fluorescence intensity, uHTS hits (AID 602372); format: functional; conditions: read-out: IC50_Mean
[3] = biological target: T2, Dual specificity protein phosphatase 3 (Homo sapiens, UniProt P51452); assay: VHR phosphatase inhibition, dose response, selectivity assay for STEP inhibitor project, biochemical (AID 602374); format: functional; conditions: read-out: IC50_Mean
BJ [4] = assay: cytotoxicity toward BJ-TERT fibroblasts, dose response, cell-based, RAS-independent, luminescence (AID 1933); format: functional; conditions: Homo sapiens
BJ [5] = assay: cells; format: functional, cell-based; conditions: Homo sapiens
[6] = biological target: Luciferin 4-monooxygenase (Photinus pyralis, UniProt P08659); assay: firefly luciferase enzyme inhibitors, dose response, biochemical, luminescence (AID 1891)
[7] = Luminescence Cell-Based Dose Confirmation HTS to Identify Inhibitors of Platelet Dense Granule Release. [Related pubchem assays: 1663 (Primary HTS), 1678 (Summary of Project)]; format: functional
BJ [8] = assay: cytotoxicity toward BJ-TERT-LT-ST fibroblasts, dose response, cell-based, RAS-independent, luminescence (AID 1935); format: functional; conditions: Homo sapiens;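 further: BJ fibroblasts immortalized with TERT plus LT and ST oncogenes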
[9] = cytotoxicity toward DRD oncogenic fibroblasts, dose response, cell-based, non-viral oncogenic, luminescence (AID 1934); format: functional; conditions: Homo sapiens
[10] = Luminescence Cell-Based Dose Retest to Confirm Inhibitors of Cancer Stem Cells. [Related pubchem assays (depositor defined):AID2717, AID2721]; format: functional; conditions: Homo sapiens
BJ [11] = assay: cytotoxicity toward Ras-transformed BJeLR fibroblasts, dose response, cell-based, alamar blue fluorescence, cherrypicked samples (AID 2631); format: functional; conditions: Homo sapiens;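 further: confirmatory dose-response assay in RAS-dependent BJ fibroblasts engineered with TERT, LT and ST, with cytotoxicity read by fluorescence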
[12] = biological target: DNA (cytosine-5)-methyltransferase 1 (Homo sapiens, UniProt P26358); assay: DNMT1 methyltransferase inhibitors, confirmation, biochemical, fluorescent molecular beacon (AID 602386); format: functional
[13] = Vero cell cytotoxicity, cytotoxicity control for M. tuberculosis inhibitor project, purified and synthesized samples, set 3 (AID 504684); format: functional
[14] = biological target: T3, High affinity choline transporter 1 (Homo sapiens, UniProt Q9GZV3); assay: CHT inhibitors, dose response, cell-based, 5-point CRC, membrane potential dye (AID 504840); format: functional
T3 sequence (Q9GZV3 whole entry): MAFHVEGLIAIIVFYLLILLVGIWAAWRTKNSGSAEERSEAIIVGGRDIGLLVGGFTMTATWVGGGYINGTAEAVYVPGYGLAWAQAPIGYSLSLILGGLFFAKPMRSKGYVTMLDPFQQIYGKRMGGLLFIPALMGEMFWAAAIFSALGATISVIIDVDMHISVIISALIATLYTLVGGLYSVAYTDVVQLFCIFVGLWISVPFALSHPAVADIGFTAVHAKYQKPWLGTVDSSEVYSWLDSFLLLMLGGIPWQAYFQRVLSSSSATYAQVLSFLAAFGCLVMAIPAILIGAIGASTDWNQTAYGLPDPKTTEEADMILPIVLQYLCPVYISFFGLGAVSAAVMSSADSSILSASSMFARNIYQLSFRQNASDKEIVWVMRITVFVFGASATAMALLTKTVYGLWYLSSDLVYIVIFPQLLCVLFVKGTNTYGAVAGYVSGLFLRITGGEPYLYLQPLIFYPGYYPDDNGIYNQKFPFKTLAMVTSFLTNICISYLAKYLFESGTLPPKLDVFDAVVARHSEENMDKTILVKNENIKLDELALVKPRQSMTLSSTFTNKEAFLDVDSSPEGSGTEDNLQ

[15] = biological target: T3, High affinity choline transporter 1; assay: CHT inhibitors, dose response, cell-based, 10-point CRC, membrane potential dye (AID 588401); format: functional;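 further: membrane potential dye fluorescence of choline-evoked depolarization via CHT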
[16] = biological target: T2, Dual specificity protein phosphatase 3; assay: VHR1 phosphatase inhibitors, primary screen, biochemical, absorbance, uHTS (AID 1654)
[17] = biological target: T2, Dual specificity protein phosphatase 3; assay: VHR1 phosphatase inhibitors, biochemical (AID 1878)
[18] = biological target: T4, Dual specificity protein phosphatase 6 (Rattus norvegicus, UniProt Q64346); assay: MKP-3 phosphatase inhibitors, primary screen, biochemical, rat enzyme, in vitro (AID 425)
T4 sequence (Q64346 whole entry): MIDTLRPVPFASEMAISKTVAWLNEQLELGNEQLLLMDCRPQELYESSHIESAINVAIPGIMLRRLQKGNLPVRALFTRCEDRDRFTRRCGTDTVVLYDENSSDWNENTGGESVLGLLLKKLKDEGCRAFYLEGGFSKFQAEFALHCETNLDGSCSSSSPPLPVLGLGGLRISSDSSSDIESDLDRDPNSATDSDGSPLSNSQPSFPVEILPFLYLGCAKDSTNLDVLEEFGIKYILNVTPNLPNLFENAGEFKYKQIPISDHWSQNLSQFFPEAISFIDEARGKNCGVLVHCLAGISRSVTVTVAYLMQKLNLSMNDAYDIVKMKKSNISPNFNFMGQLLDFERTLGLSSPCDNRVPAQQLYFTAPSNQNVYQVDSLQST

[19] = NIH-3T3 fibroblast cytotoxicity, dose response, cytotoxicity control, cell-based, fluorescence, Alamar Blue, secondary assay (AID 2327); format: functional;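 further: NIH-3T3 mouse fibroblasts cultured with fluconazole at 8 µg/mL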
[20] = insulin promoter down-regulators in MIN6 cells, imaging, high-content screening, mouse beta cells (AID 1628); format: functional
[21] = tested on: Streptococcus sp. 'group A'; assay: growth inhibition of control SK(-) GAS strain, dose response, counter-screen for streptokinase expression inhibitor project, luminescence, kanamycin, BacTiterGlo, confirmation (AID 1900); format: functional, organism-based
[22] = cytotoxicity in MIN6 insulinoma cells, dose response, cytotoxicity control, cell-based, mouse insulinoma (AID 2122); format: functional;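 further: confirmatory high-throughput counterscreen run to flag cytotoxic compounds; mouse MIN-6 beta cells carrying an insulin promoter eGFP reporter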
[23] = C. albicans growth with fluconazole, confirmation, fluorescence, retest (AID 2467); format: functional, cell-based
[24] = biological target: T5, Serine/threonine-protein phosphatase (Candida dubliniensis (strain CD36 / CBS 7987 / NCPF 3949 / NRRLY-17841) (Yeast), UniProt B9W6M3); assay: calcineurin pathway inhibitors in yeast reporter, dose response, S. cerevisiae, CDRE-lacZ, luminescence, secondary (AID 2388); format: functional, cell-based;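 further: yeast reporter cells carrying a calcineurin-responsive lacZ construct stimulated with calcium chloride; luminescent beta-galactosidase reporter signal in whole cells rather than isolated phosphatase activity; potency for inhibition where a drop in reporter signal means calcineurin blockade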
T5 sequence (B9W6M3 whole entry): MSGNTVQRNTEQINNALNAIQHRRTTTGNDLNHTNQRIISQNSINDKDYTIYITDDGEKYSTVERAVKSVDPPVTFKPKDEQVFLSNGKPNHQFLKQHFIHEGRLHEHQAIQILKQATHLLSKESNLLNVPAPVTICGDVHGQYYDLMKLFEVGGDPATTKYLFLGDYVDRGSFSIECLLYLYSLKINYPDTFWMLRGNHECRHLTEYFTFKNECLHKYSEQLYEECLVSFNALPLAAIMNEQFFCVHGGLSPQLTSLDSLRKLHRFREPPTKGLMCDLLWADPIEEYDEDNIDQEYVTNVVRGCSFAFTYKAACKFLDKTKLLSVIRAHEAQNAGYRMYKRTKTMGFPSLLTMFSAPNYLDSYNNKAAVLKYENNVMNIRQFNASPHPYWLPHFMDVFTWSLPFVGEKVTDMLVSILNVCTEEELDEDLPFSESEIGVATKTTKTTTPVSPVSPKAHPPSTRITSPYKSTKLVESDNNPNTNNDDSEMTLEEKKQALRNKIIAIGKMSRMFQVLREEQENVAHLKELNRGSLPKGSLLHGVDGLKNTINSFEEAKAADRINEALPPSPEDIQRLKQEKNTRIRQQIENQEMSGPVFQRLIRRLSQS

Streptococcus = assay: Group A Streptococcus viability loss, dose response, counter-screen for streptokinase expression inhibitor project, luminescence, BacTiterGlo (AID 1915); format: functional, organism-based;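 further: potency for reduction of bacterial viability or growth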
[25] = biological target: ATP-dependent molecular chaperone HSP82 (Candida albicans (strain WO-1) (Yeast), UniProt C4YTQ8); assay: loss of DOC-induced GRE-beta-galactosidase reporter signal, dose response, Hsp90 inhibitor project, S. cerevisiae, luminescence (AID 2400); format: functional, cell-based;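 further: beta-galactosidase luminescence from glucocorticoid response element reporter as proxy for Hsp90 function; inhibitor potency where signal loss means Hsp90 inhibition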
[26] = biological target: Ras and Rab interactor 1/Tyrosine-protein kinase ABL1 (Homo sapiens, UniProt P00519+Q13671); format: functional;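 further: biochemical TR-FRET dose-response test measuring inhibition of binding between Rin1 and Abl proteins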
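Wherever AC50 is given: cells exposed to compound for roughly 70 hours or longer before luminescence read.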

T2 sequence (P51452 whole entry): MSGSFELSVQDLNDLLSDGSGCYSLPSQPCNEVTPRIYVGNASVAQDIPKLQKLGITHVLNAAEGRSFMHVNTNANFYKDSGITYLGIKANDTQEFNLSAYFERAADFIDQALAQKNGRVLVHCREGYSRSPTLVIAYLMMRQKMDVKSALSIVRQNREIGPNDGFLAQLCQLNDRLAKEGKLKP
Sequence of Tyrosine-protein phosphatase non-receptor type 11 (Q06124 whole entry): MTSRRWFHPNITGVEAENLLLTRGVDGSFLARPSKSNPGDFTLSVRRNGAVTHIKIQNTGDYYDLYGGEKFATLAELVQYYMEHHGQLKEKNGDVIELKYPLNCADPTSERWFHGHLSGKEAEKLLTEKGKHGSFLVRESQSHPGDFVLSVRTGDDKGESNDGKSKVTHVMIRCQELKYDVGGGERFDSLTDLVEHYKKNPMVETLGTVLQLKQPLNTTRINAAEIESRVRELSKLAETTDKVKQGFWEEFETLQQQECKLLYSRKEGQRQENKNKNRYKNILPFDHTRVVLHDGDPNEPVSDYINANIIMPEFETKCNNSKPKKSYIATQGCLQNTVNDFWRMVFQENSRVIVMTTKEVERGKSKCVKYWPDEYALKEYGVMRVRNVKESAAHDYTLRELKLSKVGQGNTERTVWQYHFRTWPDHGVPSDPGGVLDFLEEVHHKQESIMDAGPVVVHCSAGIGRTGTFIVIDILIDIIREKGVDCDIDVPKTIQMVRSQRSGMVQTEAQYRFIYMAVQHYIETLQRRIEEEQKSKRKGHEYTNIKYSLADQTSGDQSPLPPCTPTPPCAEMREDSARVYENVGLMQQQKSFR
Sequence of Tyrosine-protein phosphatase non-receptor type 5 (P54829 whole entry): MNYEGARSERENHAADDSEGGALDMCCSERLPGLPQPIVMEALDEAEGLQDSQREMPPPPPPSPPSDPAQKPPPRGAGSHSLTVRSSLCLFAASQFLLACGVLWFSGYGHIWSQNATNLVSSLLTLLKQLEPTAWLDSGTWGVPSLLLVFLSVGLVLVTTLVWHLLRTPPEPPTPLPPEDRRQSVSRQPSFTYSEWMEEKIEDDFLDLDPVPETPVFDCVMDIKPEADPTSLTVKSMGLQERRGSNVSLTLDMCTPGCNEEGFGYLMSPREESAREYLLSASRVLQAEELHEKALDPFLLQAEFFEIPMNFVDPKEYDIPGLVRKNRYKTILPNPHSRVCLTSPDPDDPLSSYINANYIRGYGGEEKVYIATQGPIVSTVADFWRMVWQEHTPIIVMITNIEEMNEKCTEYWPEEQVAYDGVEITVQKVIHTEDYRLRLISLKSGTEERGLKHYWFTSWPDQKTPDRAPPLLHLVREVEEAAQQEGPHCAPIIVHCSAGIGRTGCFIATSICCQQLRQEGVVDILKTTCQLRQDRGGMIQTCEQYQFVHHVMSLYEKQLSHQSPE
Sequence of Phospholipase A2 (P04054 whole entry): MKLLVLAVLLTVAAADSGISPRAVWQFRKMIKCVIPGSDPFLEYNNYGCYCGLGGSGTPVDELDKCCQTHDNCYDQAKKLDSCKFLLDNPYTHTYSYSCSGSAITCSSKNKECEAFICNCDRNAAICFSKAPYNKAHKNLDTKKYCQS
Sequence of Ras and Rab interactor 1/Tyrosine-protein kinase ABL1 (P00519 whole entry): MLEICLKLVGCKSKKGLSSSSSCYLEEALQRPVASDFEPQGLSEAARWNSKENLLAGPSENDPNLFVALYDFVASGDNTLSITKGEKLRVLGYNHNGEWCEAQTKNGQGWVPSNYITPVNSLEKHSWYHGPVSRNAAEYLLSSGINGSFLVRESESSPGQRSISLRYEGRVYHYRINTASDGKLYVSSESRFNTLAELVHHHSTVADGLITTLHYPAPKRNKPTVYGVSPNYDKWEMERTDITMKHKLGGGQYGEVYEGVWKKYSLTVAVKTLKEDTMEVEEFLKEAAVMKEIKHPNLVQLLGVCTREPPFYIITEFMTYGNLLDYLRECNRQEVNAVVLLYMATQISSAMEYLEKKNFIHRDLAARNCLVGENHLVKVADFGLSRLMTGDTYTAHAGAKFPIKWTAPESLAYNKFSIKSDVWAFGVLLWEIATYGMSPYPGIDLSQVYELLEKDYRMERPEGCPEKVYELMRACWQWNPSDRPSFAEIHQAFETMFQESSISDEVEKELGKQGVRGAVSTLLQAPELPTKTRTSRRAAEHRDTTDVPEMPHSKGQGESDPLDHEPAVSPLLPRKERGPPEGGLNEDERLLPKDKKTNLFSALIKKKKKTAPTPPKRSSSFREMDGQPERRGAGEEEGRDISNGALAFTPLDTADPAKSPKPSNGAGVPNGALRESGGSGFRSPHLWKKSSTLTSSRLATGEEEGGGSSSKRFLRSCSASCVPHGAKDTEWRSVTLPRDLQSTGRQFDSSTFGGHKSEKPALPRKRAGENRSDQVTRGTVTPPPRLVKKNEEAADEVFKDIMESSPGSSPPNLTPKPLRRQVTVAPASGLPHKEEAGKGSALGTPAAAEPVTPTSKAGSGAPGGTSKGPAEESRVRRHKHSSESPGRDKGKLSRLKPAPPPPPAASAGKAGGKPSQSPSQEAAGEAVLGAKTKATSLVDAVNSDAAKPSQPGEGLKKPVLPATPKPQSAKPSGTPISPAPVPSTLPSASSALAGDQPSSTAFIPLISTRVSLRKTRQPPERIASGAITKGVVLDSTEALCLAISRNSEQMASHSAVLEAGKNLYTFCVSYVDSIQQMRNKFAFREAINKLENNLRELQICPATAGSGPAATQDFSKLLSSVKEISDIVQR
Sequence of Ras and Rab interactor 1/Tyrosine-protein kinase ABL1 (Q13671 whole entry): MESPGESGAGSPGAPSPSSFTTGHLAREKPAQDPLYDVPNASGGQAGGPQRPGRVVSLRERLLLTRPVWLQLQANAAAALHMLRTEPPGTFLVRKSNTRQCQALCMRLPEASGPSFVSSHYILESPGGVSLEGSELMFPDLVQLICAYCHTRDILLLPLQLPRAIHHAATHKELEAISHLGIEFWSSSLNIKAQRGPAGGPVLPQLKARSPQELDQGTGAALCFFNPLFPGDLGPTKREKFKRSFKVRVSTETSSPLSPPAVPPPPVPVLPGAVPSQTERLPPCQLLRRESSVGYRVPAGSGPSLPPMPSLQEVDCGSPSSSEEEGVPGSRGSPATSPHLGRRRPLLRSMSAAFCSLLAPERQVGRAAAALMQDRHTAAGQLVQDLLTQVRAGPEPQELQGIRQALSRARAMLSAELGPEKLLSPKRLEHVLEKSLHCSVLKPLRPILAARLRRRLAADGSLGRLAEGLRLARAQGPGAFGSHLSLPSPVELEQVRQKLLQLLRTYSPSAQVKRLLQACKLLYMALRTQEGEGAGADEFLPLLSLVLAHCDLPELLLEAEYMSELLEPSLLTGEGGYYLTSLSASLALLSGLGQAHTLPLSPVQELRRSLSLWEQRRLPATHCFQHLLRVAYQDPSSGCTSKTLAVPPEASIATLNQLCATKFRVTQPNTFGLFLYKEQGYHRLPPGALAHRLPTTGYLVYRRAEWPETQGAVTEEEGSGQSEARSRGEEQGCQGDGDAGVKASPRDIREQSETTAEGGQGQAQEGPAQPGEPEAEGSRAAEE
Sequence of DNA (cytosine-5)-methyltransferase 1 (P26358 whole entry): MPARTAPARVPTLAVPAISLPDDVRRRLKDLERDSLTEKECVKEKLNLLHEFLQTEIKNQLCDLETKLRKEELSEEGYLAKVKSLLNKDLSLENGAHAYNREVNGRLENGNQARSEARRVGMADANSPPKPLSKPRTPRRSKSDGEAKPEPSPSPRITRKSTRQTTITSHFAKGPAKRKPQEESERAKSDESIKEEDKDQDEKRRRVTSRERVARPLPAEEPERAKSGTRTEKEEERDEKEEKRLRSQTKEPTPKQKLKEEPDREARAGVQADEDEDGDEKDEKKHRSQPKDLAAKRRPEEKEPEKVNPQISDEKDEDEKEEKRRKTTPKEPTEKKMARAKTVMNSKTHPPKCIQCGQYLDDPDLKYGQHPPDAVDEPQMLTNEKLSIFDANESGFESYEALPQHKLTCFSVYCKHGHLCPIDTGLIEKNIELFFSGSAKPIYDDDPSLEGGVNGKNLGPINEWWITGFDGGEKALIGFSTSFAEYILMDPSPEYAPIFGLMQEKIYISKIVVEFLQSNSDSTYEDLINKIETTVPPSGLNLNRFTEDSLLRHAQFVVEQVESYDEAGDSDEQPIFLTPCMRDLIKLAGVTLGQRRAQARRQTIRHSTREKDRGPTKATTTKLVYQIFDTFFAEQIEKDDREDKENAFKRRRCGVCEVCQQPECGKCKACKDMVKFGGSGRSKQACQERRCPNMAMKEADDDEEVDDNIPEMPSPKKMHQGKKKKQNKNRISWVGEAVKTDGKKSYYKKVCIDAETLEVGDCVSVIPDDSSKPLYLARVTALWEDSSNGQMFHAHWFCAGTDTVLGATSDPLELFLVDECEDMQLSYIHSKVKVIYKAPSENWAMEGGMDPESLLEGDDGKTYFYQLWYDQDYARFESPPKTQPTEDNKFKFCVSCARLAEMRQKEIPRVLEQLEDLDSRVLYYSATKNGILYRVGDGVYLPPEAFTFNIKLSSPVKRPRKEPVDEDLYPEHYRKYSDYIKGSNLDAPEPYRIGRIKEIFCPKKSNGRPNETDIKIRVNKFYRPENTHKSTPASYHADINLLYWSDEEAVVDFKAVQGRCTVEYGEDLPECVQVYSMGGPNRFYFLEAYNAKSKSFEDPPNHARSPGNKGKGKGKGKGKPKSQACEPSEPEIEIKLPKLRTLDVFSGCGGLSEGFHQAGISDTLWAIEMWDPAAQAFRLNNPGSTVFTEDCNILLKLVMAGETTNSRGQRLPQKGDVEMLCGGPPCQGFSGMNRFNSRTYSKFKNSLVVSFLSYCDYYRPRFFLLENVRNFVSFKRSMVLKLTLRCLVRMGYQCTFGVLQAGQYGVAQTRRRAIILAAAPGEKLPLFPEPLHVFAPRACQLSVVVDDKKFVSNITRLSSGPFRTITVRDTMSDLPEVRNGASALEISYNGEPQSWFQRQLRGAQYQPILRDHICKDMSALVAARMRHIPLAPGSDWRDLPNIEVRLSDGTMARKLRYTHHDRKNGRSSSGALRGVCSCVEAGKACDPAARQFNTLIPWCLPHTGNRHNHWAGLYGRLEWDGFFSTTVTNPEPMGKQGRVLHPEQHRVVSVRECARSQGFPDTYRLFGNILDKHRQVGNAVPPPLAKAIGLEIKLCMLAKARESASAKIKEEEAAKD

In the case of `Cc1ccc(S(=O)(=O)N2CCC(C(=O)NCc3ccccc3Cl)CC2)cc1`, the IC50 (Cysteine protease ATG4B) is reported as 17.5 µM (active) and the IC50 (Phospholipase A2) is reported as 9.46 µM (active).

For `Cc1ccc(NC(=O)c2ccc3nc(N4CCOCC4)sc3c2)c(Cl)c1`, the IC50 [1] was 1.97 µM (active), the IC50 [2] was 17.2 µM (active) and the IC50 [3] was 804 nM (active).

For `O=C(Oc1ccc(-c2nc(-c3ccccn3)no2)cc1)c1ccccc1`, the EC50 (BJ [4]) was 4.55 µM (active), the EC50 (BJ [5]) was 3.19 µM (active) and the EC50 [6] was 421 nM (active). The EC50 [7] was 475 nM (active), the EC50 (BJ [8]) was 16.8 µM (active) and the EC50 [9] was 3.96 µM (active). The AC50 [10] was 2.63 µM (active), the EC50 (BJ [11]) was > 133 µM (inactive) and the IC50 [12] was > 99 µM (inactive).

With `Cc1ccc(NC(=O)C2C3/C=C\CCCCC32)cc1C` (stereo not drawn) the CC50 [13] was > 100 µM (active).

With `Cc1ccc2c(c1)[C@@H]1CN(C)CC[C@@H]1N2C(=O)Nc1cccc(C(F)(F)F)c1` the IC50 [14] was 8.23 µM (active) and the IC50 [15] was 6.31 µM (active).

For `COC(=O)Nc1sc2c(c1C(N)=O)CCC(C)C2` (stereo not drawn), the IC50 [16] was 1.9 µM (active), the IC50 [17] was 3.56 µM (active) and the IC50 [18] was > 158 µM (not active). The IC50 [1] was 1.81 µM (active), the IC50 [2] was 4.65 µM (active) and the IC50 [3] was 312 nM (active).

With `CC1(C)COCN1S(=O)(=O)c1ccc(C(=O)Nc2nnc(-c3ccc(Cl)s3)o2)cc1` the EC50 [19] was 68.5 µM (active), the IC50 [20] was 3.39 µM (active) and the EC50 [21] was 691 nM (active). The IC50 [22] was 3.33 µM (active), the EC50 [23] was 308 nM (active) and the EC50 [24] was > 180 µM (inactive). For the same compound, the EC50 (Streptococcus) was 841 nM (active), the IC50 [14] was 13.8 µM (active) and the EC50 [25] was 22.2 µM (active).

With `Cc1ccc(C2N(c3cccc(Cl)c3)C(=O)N3CCCN23)cc1` (stereo not drawn) the IC50 [26] was 11.1 µM (inactive).
